# Patent US20150274719A1, “AMINO-SUBSTITUTED IMIDAZO[1,2-A]PYRIDINECARBOXAMIDES AND THEIR USE” (BAYER PHARMA AKTIENGESELLSCHAFT, priority 2012, published 2015)
# Molecular target: T1, recombinant guanylate cyclase reporter cell line (Rattus norvegicus, UniProt P19686+P20595)
# T1 construct: expressed in transfected cells; host or cells: recombinant reporter cell line
# T1 sequence (P19686 1-690): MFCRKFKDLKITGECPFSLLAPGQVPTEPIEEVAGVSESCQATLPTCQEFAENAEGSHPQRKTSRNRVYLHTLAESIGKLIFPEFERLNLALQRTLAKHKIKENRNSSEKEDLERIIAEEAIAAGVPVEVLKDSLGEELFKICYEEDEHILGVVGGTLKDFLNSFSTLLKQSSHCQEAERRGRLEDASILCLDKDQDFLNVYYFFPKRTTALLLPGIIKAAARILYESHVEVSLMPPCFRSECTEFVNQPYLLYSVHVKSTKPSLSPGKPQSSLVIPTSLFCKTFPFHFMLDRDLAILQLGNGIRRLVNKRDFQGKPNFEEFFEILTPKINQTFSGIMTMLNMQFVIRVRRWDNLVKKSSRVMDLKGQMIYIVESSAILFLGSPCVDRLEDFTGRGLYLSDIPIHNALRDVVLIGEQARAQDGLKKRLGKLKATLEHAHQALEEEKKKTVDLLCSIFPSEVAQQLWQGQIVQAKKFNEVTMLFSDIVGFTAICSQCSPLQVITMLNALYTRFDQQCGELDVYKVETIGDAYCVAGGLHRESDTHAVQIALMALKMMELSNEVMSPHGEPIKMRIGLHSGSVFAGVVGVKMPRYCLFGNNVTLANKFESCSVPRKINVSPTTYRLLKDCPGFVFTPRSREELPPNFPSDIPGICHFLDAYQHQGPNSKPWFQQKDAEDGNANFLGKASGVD
# T1 sequence (P20595 1-619): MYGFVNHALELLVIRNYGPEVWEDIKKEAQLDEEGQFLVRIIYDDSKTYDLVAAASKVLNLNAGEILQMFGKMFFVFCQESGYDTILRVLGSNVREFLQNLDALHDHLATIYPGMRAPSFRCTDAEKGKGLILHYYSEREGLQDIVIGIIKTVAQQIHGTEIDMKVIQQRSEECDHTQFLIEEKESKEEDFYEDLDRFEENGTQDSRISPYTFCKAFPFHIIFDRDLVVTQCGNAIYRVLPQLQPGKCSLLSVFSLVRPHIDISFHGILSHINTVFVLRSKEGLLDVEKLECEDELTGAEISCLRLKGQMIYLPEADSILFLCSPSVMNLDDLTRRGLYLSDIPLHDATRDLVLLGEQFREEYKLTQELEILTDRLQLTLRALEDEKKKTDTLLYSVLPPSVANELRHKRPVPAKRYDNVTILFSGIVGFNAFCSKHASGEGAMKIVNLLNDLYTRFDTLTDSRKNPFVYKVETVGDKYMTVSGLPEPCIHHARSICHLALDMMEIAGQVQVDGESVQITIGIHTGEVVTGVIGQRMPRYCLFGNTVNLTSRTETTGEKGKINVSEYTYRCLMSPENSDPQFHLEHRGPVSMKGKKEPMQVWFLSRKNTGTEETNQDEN
# Experiment: Action on recombinant guanylate cyclase reporter cell line
# Assay type: cell-based
# Settings: in some cases mean values from individual determinations
# How it was run: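 Rat recombinant guanylate cyclase reporter cell line measures cellular activity. Value reported as MEC (minimal effective concentration), sometimes averaged over individual determinations.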
row,SMILES,MEC (minimal effective concentration)
1,"Cc1cc(OCc2c(F)cccc2F)c2nc(C)c(C(=O)NC(CN)c3cnn(C)c3)n2c1 (racemic) [Example 387, rac-N-[2-amino-1-(1-methyl-1H-pyrazol-4-yl)ethyl]-8-[(2,6-difluorobenzyl)oxy]-2,6-dimethylimidazo[1,2-a]pyridine-3-carboxamide]",10.0 µM
2,"Cc1cc(OCc2c(F)cccc2F)c2nc(C)c(C(=O)NC(CN)c3ccc4c(c3)OCCO4)n2c1 (racemic) [Example 388, rac-N-[2-amino-1-(2,3-dihydro-1,4-benzodioxin-6-yl)ethyl]-8-[(2,6-difluorobenzyl)oxy]-2,6-dimethylimidazo[1,2-a]pyridine-3-carboxamide]",0.30 µM
3,"Cc1cc(OCc2c(F)cccc2F)c2nc(C)c(C(=O)NC(CN)c3csc4ccccc34)n2c1 (racemic) [Example 389, rac-N-[2-amino-1-(1-benzothiophen-3-yl)ethyl]-8-[(2,6-difluorobenzyl)oxy]-2,6-dimethylimidazo[1,2-a]pyridine-3-carboxamide]",1.00 µM
4,"Cc1cc(OCc2c(F)cccc2F)c2nc(C)c(C(=O)NC(CN)c3cc(F)c(F)c(F)c3)n2c1 (racemic) [Example 390, rac-N-[2-amino-1-(3,4,5-trifluorophenyl)ethyl]-8-[(2,6-difluorobenzyl)oxy]-2,6-dimethylimidazo[1,2-a]pyridine-3-carboxamide]",0.30 µM
5,"CSCCC(CN)NC(=O)c1c(C)nc2c(OCc3c(F)cccc3F)cc(C)cn12 (racemic) [Example 391, rac-N-[1-amino-4-(methylsulfanyl)butan-2-yl]-8-[(2,6-difluorobenzyl)oxy]-2,6-dimethylimidazo[1,2-a]pyridine-3-carboxamide]",0.10 µM
6,"Cc1cc(OCc2c(F)cccc2F)c2nc(C)c(C(=O)NC(CN)c3cccc(OC(F)F)c3)n2c1 (racemic) [Example 392, rac-N-{2-amino-1-[3-(difluoromethoxy)phenyl]ethyl}-8-[(2,6-difluorobenzyl)oxy]-2,6-dimethylimidazo[1,2-a]pyridine-3-carboxamide]",1.00 µM
7,"Cc1cc(OCc2c(F)cccc2F)c2nc(C)c(C(=O)NC(CN)c3cccc(OCCO)c3)n2c1 (racemic) [Example 393, rac-N-{2-amino-1-[3-(2-hydroxyethoxy)phenyl]ethyl}-8-[(2,6-difluorobenzyl)oxy]-2,6-dimethylimidazo[1,2-a]pyridine-3-carboxamide]",1.00 µM
8,"Cc1cc(OCc2c(F)cccc2F)c2nc(C)c(C(=O)NC(CN)c3cccc(C(F)(F)F)c3)n2c1 (racemic) [Example 394, rac-N-{2-amino-1-[3-(trifluoromethyl)phenyl]ethyl}-8-[(2,6-difluorobenzyl)oxy]-2,6-dimethylimidazo[1,2-a]pyridine-3-carboxamide]",0.30 µM
9,"Cc1cc(OCc2c(F)cccc2F)c2nc(C)c(C(=O)NC(CN)c3ccc4ncccc4c3)n2c1 (racemic) [Example 395, rac-N-[2-amino-1-(quinolin-6-yl)ethyl]-8-[(2,6-difluorobenzyl)oxy]-2,6-dimethylimidazo[1,2-a]pyridine-3-carboxamide]",1.00 µM
10,"CC(=O)Nc1cccc(C(CN)NC(=O)c2c(C)nc3c(OCc4c(F)cccc4F)cc(C)cn23)c1 (racemic) [Example 396, rac-N-[1-(3-acetamidophenyl)-2-aminoethyl]-8-[(2,6-difluorobenzyl)oxy]-2,6-dimethylimidazo[1,2-a]pyridine-3-carboxamide]",3.00 µM
11,"Cc1nc2c(OCc3c(F)cccc3F)cccn2c1C(=O)NC(C)CN (single isomer, unassigned) [Example 19, ent-N-(1-Aminopropan-2-yl)-8-[(2,6-difluorobenzyl)oxy]-2-methylimidazo[1,2-a]pyridine-3-carboxamide]",1.66 µM
12,"Cc1nc2c(OCc3c(F)cccc3F)cccn2c1C(=O)NC(C)CN (single isomer, unassigned) [Example 20, ent-N-(1-Aminopropan-2-yl)-8-[(2,6-difluorobenzyl)oxy]-2-methylimidazo[1,2-a]pyridine-3-carboxamide]",1.00 µM
13,"Cc1nc2c(OCc3c(F)cccc3F)cc(Cl)cn2c1C(=O)NCC(C)N (single isomer, unassigned) [Example 29, ent-N-(2-Aminopropyl)-6-chloro-8-[(2,6-difluorobenzyl)oxy]-2-methylimidazo[1,2-a]pyridine-3-carboxamide]",0.20 µM
14,"Cc1nc2c(OCc3c(F)cccc3F)cc(Cl)cn2c1C(=O)NCC(C)N (single isomer, unassigned) [Example 30, ent-N-(2-Aminopropyl)-6-chloro-8-[(2,6-difluorobenzyl)oxy]-2-methylimidazo[1,2-a]pyridine-3-carboxamide]",0.30 µM
15,"CCOCC(CN)NC(=O)c1c(C)nc2c(OCc3c(F)cccc3F)cccn12 (single isomer, unassigned) [Example 56, ent-N-(1-amino-3-ethoxypropan-2-yl)-8-[(2,6-difluorobenzyl)oxy]-2-methylimidazo[1,2-a]-pyridine-3-carboxamide]",1.00 µM

# Other lines, results leading:
row,MEC (minimal effective concentration),SMILES
1,1.00 µM,"COC(=O)c1cccc(C(N)CNC(=O)c2c(C)nc3c(OCc4c(F)cccc4F)cc(C)cn23)c1 (racemic) [Example 399, rac-Methyl 3-{1-amino-2-[({8-[(2,6-difluorobenzyl)oxy]-2,6-dimethylimidazo[1,2-a]pyridin-3-yl}carbonyl)amino]ethyl}benzoate]"
2,0.65 µM,"Cc1cc(OCc2c(F)cccc2F)c2nc(C)c(C(=O)NCC(N)C#N)n2c1 (racemic) [Example 400, rac-N-(2-amino-2-cyanoethyl)-8-[(2,6-difluorobenzyl)oxy]-2,6-dimethylimidazo[1,2-a]pyridine-3-carboxamide]"
3,0.10 µM,"CC=CCC(N)CNC(=O)c1c(C)nc2c(OCc3c(F)cccc3F)cc(C)cn12 (racemic) [Example 406, rac-N-[(4E/Z)-2-aminohex-4-en-1-yl]-8-[(2,6-difluorobenzyl)oxy]-2,6-dimethylimidazo[1,2-a]pyridine-3-carboxamide]"
4,0.10 µM,"CSCCC(N)CNC(=O)c1c(C)nc2c(OCc3c(F)cccc3F)cc(C)cn12 (racemic) [Example 412, rac-N-[2-amino-4-(methylsulfanyl)butyl]-8-[(2,6-difluorobenzyl)oxy]-2,6-dimethylimidazo[1,2-a]pyridine-3-carboxamide]"
5,5.5 µM,"Cc1cc(OCc2c(F)cccc2F)c2nc(C)c(C(=O)NCC(N)CCS(C)(=O)=O)n2c1 (racemic) [Example 413, rac-N-[2-amino-4-(methylsulfonyl)butyl]-8-[(2,6-difluorobenzyl)oxy]-2,6-dimethylimidazo[1,2-a]pyridine-3-carboxamide]"
6,0.30 µM,"Cc1cc(OCc2c(F)cccc2F)c2nc(C)c(C(=O)NCC3CS(=O)(=O)CCN3)n2c1 (racemic) [Example 414, rac-8-[(2,6-difluorobenzyl)oxy]-N-[(1,1-dioxidothiomorpholin-3-yl)methyl]-2,6-dimethylimidazo[1,2-a]pyridine-3-carboxamide]"
7,5.5 µM,"Cc1cc(OCc2c(F)cccc2F)c2nc(C)c(C(=O)NCC(N)c3csc(C)n3)n2c1 (racemic) [Example 415, rac-N-[2-amino-2-(2-methyl-1,3-thiazol-4-yl)ethyl]-8-[(2,6-difluorobenzyl)oxy]-2,6-dimethylimidazo[1,2-a]pyridine-3-carboxamide triformate]"
8,1.00 µM,"Cc1cc(OCc2c(F)cccc2F)c2nc(C)c(C(=O)NC(C#N)CN)n2c1 (racemic) [Example 416, rac-N-(2-amino-1-cyanoethyl)-8-[(2,6-difluorobenzyl)oxy]-2,6-dimethylimidazo[1,2-a]pyridine-3-carboxamide]"
